In brackets after ≈: the same amount, converted by molar mass.
Columns and labels:
Type in all cases: functional
[1] = test system: P388; experiment: Cytotoxicity against mouse P388 cells after 3 days by MTT assay; conditions: P388, 72 h, read-out: ED50 (the source's name)
[2] = test system: A549; experiment: Cytotoxicity against human A549 cells after 6 days by MTT assay; conditions: A549, 144 h, read-out: ED50 (the source's name)
[3] = test system: HT-29; experiment: Cytotoxicity against human HT-29 cells after 6 days by MTT assay; conditions: HT-29, 144 h, read-out: ED50 (the source's name)
[4] = test system: KB; experiment: Cytotoxicity against human KB cells after 3 days by MTT assay; conditions: 72 h, read-out: ED50 (the source's name)

SMILES	EC50 [1] [µg/mL]	EC50 [2] [µg/mL]	EC50 [3] [µg/mL]	EC50 [4] [µg/mL]
C=C1C(=O)O[C@@H]2C[C@@H]1CC[C@](C)(O)[C@H](O)CC/C(C)=C/CC[C@@]2(C)O [SINUFLEXOLIDE]	0.16 (≈ 0.454 µM)	0.68 (≈ 1.93 µM)	0.39 (≈ 1.11 µM)	0.46 (≈ 1.31 µM)
C=C(C(=O)OC)[C@H]1CC[C@](C)(O)[C@H](O)CC/C(C)=C/CC[C@@](C)(O)[C@@H](O)C1 [SINUFLEXIBILIN]	0.27 (≈ 0.702 µM)	0.72 (≈ 1.87 µM)	0.22 (≈ 0.572 µM)	1.73 (≈ 4.5 µM)
C/C1=C\CC[C@@](C)(O)[C@H]2C[C@H](CC[C@](C)(O)[C@H](O)CC1)[C@@H](C)C(=O)O2 [DIHYDROSINUFLEXOLIDE]	3.86 (≈ 10.9 µM)	16.8 (≈ 47.4 µM)	32.4 (≈ 91.4 µM)	> 50

Source: ChEMBL document CHEMBL1150913, “Novel cytotoxic cembranoids from the soft coral Sinularia flexibilis” (1998)
